Drawing on patent US9796668B2, “Natural product analogs including an anti-inflammatory cyanoenone pharmacore and methods of use” (REATA PHARMACEUTICALS, INC., priority 2008, dated 2017), this text covers IC50 for 25 compounds.

SMILES strings stand for the structures. Read-outs that look alike come from different tables or passages of the source.

For assay [1], the system named is IFNγ-induced NO production in RAW264.7 macrophages. Put plainly: Suppression of IFNγ-induced NO production (Griess reagent). The format is cell-based, mouse. How it is done: (§1) FIGS. 1-16 and 20-24. Inhibition of NO Production. RAW264.7 macrophages were pre-treated with DMSO or drugs at various concentrations (μM) for 2 hours, then treated with IFNγ for 24 hours. NO concentration in media was determined using a Griess reagent system; cell viability was determined using the WST-1 reagent.
Compounds of the present disclosure have been tested for inhibition of NO production. Experimental details are provided in Example 1.
(§2) RAW264.7 macrophages were pre-treated with DMSO or drugs for 2 hours, then treated with recombinant mouse IFNγ (Sigma) for 24 hours. NO concentration in media was determined using the Griess reagent system (Promega). Cell viability was determined using WST-1 reagent (Roche).

The subject of another assay is RAW264.7 macrophages. Put plainly: Cell viability (WST-1 reagent). The note with it: RAW264.7, 20 ng/ml IFNγ. It is filed as cell-based, mouse. How it is done:
as §1, §2
A general note: Formazan colour is commonly taken as a measure of viable cells.

[2] abbreviates: Mus musculus, RAW264.7, read-out: NO IC50.
The mark [3] stands for this setting: Mus musculus, RAW264.7, 20 ng/ml IFNγ, read-out: NO IC50.
The mark [4] stands for this setting: Mus musculus, RAW264.7, parent compounds, read-out: IC50 in the NO assay.
Setting [5] is: Mus musculus, RAW264.7, read-out: IC50 in the NO assay.

For orientation: IC50 means the concentration needed to halve the response being measured. `COC(=O)CC[C@@H](C)[C@H]1CC[C@H]2[C@@H]3[C@H](O)C[C@@H]4CC(=O)C(C#N)=C[C@]4(C)[C@H]3C[C@H](O)[C@]12C` [Compound 63314]: the concentration for half-maximal inhibition (IC50) in assay [1] (setting [2]) was around 8000 nM; in the assay with RAW264.7 macrophages (Mus musculus) it was above 200 nM.
As for `CCCC1(CCC)C(=O)C(C#N)=C[C@@]2(C)C1=CC[C@@H]1[C@@H]2CC[C@]2(C)C(=O)CC[C@@H]12` [Compound 63313], the IC50 in assay [1] (setting [2]) is around 450 nM; in the assay with RAW264.7 macrophages (Mus musculus), around 2500 nM.
Turning to `Oc1ccc(C=Cc2cc(O)cc(O)c2)cc1` [Resveratrol, resveratrol, reference compound], the IC50 (in assay [1] (setting [3]); with RAW264.7 macrophages (Mus musculus)) was above 10000 nM throughout.
Regarding `C[C@@]12CCC3C(CCC4=C(C#N)C(=O)CC[C@]43C)C1CCC2O` (stereo partly drawn) [Compound D0015, (10S,13R)-17-hydroxy-10,13-dimethyl-3-oxo-2,3,6,7,8,9,10,11,12,13,14,15,16,17-tetradecahydro-1H-cyclopenta[a]phenanthrene-4-carbonitrile], the IC50 was 2900 nM in assay [1] (setting [3]) and above 10000 nM with RAW264.7 macrophages (Mus musculus).
Take `C=CCC1(CC=C)C(=O)C(C#N)(C#N)C[C@@]2(C)C1=CC[C@@H]1[C@@H]2CC[C@]2(C)C(=O)CC[C@@H]12` [Compound 63290]: the IC50 was around 3000 nM in assay [1] (setting [2]) and around 10000 nM in the assay on RAW264.7 macrophages (Mus musculus).
As to `COc1cc(C=CC2(C(C)(C)C(=O)/C=C/[C@@]3(C)C=C(C#N)C(=O)C(C)(C)C3)OCCO2)ccc1O` [Compound C0010, (S)-3-((E)-4-(2-(4-hydroxy-3-methoxystyryl)-1,3-dioxolan-2-yl)-4-methyl-3-oxopent-1-enyl)-3,5,5-trimethyl-6-oxocyclohex-1-enecarbonitrile], the IC50 in assay [1] (setting [3]) worked out at 700 nM; in the assay on RAW264.7 macrophages (Mus musculus), 5000 nM.
For the compound `COCO[C@H]1C[C@H]2[C@@H]([C@H](OCOC)C[C@@H]3CC(=O)C(C#N)=C[C@@]32C)[C@@H]2CC[C@H]([C@H](C)CCC(=O)OC)[C@@]12C` [Compound 63312], the figures for the IC50 (in assay [1] (setting [2]); in the assay on RAW264.7 macrophages (Mus musculus)) were around 3500 nM and above 200 nM, respectively.
With `CC1(C)C(=O)C(C#N)=C[C@]2(C)C3CC[C@@]4(C)C(CC[C@@H]4O)C3CCC12` (stereo partly drawn) [Compound D0017, (10S,13S,17S)-17-hydroxy-4,4,10,13-tetramethyl-3-oxo-4,5,6,7,8,9,10,11,12,13,14,15,16,17-tetradecahydro-3H-cyclopenta[a]phenanthrene-2-carbonitrile], the values for the IC50 (in assay [1] (setting [3]); in the assay on RAW264.7 macrophages (Mus musculus)) were 140 nM and 10000 nM, respectively.
Consider `C[C@]12C=C(C#N)C(=O)C3(CCCC3)C1=CC[C@@H]1[C@@H]2CC[C@]2(C)C(=O)CC[C@@H]12` [Compound 63318], for which the IC50 in assay [1] (setting [2]) is around 50 nM.
Take `C=CCC1(CC=C)C(=O)C(C#N)(C#N)C[C@@]2(C)C1=CC[C@@H]1[C@@H]2CC[C@@]2(C)[C@H]1CCC21OCCO1` [Compound 63291]: the IC50 is around 1500 nM in assay [1] (setting [2]) and above 10000 nM with RAW264.7 macrophages (Mus musculus).
`C[C@]12C=C(C#N)C(=O)C3(CCCC3)C1=CC[C@@H]1[C@@H]2CC[C@@]2(C)[C@H]1CCC21OCCO1` [Compound 63317]: the IC50 in assay [1] (setting [2]) is around 70 nM.
`C[C@]12C=C(C#N)C(=O)C3(CC=CC3)C1=CC[C@@H]1[C@@H]2CC[C@]2(C)C(=O)CC[C@@H]12` [Compound 63311]: the IC50 was around 20 nM in assay [1] (setting [2]) and around 750 nM with RAW264.7 macrophages (Mus musculus).
For `COc1cc(/C=C/C(=O)CC(=O)/C=C/c2ccc(O)c(OC)c2)ccc1O` [Curcumin, curcumin, reference compound], the figures for the IC50 (in assay [1] (setting [4]); in assay [1] (setting [3]); with RAW264.7 macrophages (Mus musculus)) were 1500 nM, 1350 nM and 4000 nM, respectively.
Turning to `C[C@]1(/C=C/c2ccc(O)cc2)C=C(C#N)C(=O)CC1` [Compound R00141, (S,E)-3-(4-hydroxystyryl)-3-methyl-6-oxocyclohex-1-enecarbonitrile], the results for the IC50 (in assay [1] (setting [3]); in the assay on RAW264.7 macrophages (Mus musculus)) were 3000 nM and above 10000 nM, respectively.
On to `CC1(C)C[C@@](C)(/C=C/c2ccc(O)cc2)C=C(C#N)C1=O` [Compound R00142, (S,E)-3-(4-hydroxystyryl)-3,5,5-trimethyl-6-oxocyclohex-1-enecarbonitrile], for which the IC50 was 1200 nM in assay [1] (setting [3]) and above 10000 nM in the assay with RAW264.7 macrophages (Mus musculus).
On to `CC1(C)C(=O)C(C#N)=C[C@]2(C)C3CC[C@]4(C)C(=O)CCC4C3CCC12` (stereo partly drawn) [Compound D0018, (10S,13S)-4,4,10,13-tetramethyl-3,17-dioxo-4,5,6,7,8,9,10,11,12,13,14,15,16,17-tetradecahydro-3H-cyclopenta[a]phenanthrene-2-carbonitrile], for which the IC50 is 130 nM in assay [1] (setting [5]), 130 nM in assay [1] (setting [3]) and above 10000 nM in the assay with RAW264.7 macrophages (Mus musculus).
Regarding `C[C@]12C=C(C#N)C(=O)C3(CC=CC3)C1=CC[C@@H]1[C@@H]2CC[C@@]2(C)[C@H]1CCC21OCCO1` [Compound 63304], the results for the IC50 (in assay [1] (setting [2]); in the assay on RAW264.7 macrophages (Mus musculus)) were around 30 nM and around 400 nM, respectively.
Turning to `COc1cc(C=CC2(C(C)(C)C(=O)/C=C/[C@@]3(C)C=C(C#N)C(=O)C(C)(C)C3)OCCO2)ccc1O[Si](C)(C)C(C)(C)C` [Compound C0008, (S)-3-((E)-4-(2-(4-(tert-butyldimethylsilyloxy)-3-methoxystyryl)-1,3-dioxolan-2-yl)-4-methyl-3-oxopent-1-enyl)-3,5,5-trimethyl-6-oxocyclohex-1-enecarbonitrile], the values for the IC50 (in assay [1] (setting [2]); in the assay with RAW264.7 macrophages (Mus musculus)) were 340 nM and 5000 nM, respectively.
As for `C[C@]12CC[C@H]3[C@@H](CC=C4C5(CCCC5)C(=O)C(C#N)=C[C@@]43C)[C@@H]1CC[C@@H]2O` [Compound 63329], the IC50 in assay [1] (setting [2]) was around 60 nM.
As to `C[C@@H]1CC[C@@]2(OC1)O[C@H]1C[C@H]3[C@@H]4CC[C@H]5C[C@@H](O)CC[C@]5(C)[C@H]4CC(=O)[C@]3(C)[C@H]1[C@@H]2C` [Hecogenin, hecogenin, reference compound], the IC50 was above 10000 nM in assay [1] (RAW264.7, 20 ng/ml IFNγ, read-out: NO IC50) and above 10000 nM in the assay on RAW264.7 macrophages.
With `CC1CC[C@@]2(OC1)OC1CC3C4CCC5CC(=O)C(C#N)=C[C@]5(C)C4=CC(=O)[C@]3(C)C1[C@@H]2C` (stereo partly drawn) [Compound H0001], the IC50 came out at 150 nM in assay [1] (setting [2]) and 2500 nM in the assay on RAW264.7 macrophages (Mus musculus).
Turning to `COCOC1CCC2C3CCC4=C(C#N)C(=O)CC[C@@]4(C)C3CC[C@@]12C` (stereo partly drawn) [Compound D0014, (10S,13R)-17-(methoxymethoxy)-10,13-dimethyl-3-oxo-2,3,6,7,8,9,10,11,12,13,14,15,16,17-tetradecahydro-1H-cyclopenta[a]phenanthrene-4-carbonitrile], the IC50 in assay [1] (setting [2]) is 2400 nM; in the assay with RAW264.7 macrophages (Mus musculus), above 10000 nM.
Regarding `CC1(C)C(=O)C(C#N)=C[C@]2(C)C3CC[C@]4(C)C(O[Si](C)(C)C)CCC4C3CCC12` (stereo partly drawn) [Compound D0016, (10S,13S)-4,4,10,13-tetramethyl-3-oxo-17-(trimethylsilyloxy)-4,5,6,7,8,9,10,11,12,13,14,15,16,17-tetradecahydro-3H-cyclopenta[a]phenanthrene-2-carbonitrile], the values for the IC50 (in assay [1] (setting [3]); with RAW264.7 macrophages (Mus musculus)) were 150 nM and 10000 nM, respectively.
In the case of `C[C@]12CC[C@H](O)CC1=CC[C@@H]1[C@@H]2CC[C@]2(C)C(=O)CC[C@@H]12` [DHEA, dehydroandrosterone, reference compound], the 50% inhibitory concentration (IC50) (in assay [1] (setting [4]); in assay [1] (setting [3]); with RAW264.7 macrophages (Mus musculus)) was above 10000 nM each time.
Consider `COc1cc(/C=C/C(=O)C(C)(C)C(=O)/C=C/[C@@]2(C)C=C(C#N)C(=O)C(C)(C)C2)ccc1O` [Compound C0009, (S)-3-((1E,6E)-7-(4-hydroxy-3-methoxyphenyl)-4,4-dimethyl-3,5-dioxohepta-1,6-dienyl)-3,5,5-trimethyl-6-oxocyclohex-1-enecarbonitrile], for which the IC50 in assay [1] (setting [5]) was determined as 100 nM; in assay [1] (setting [3]) it was 100 nM; in the assay with RAW264.7 macrophages (Mus musculus), 1000 nM.
